According to publication PMC7433713, “Beyond Single Nucleotide Polymorphisms: CYP3A5^∗3^∗6^∗7 Composite and ABCB1 Haplotype Associations to Tacrolimus Pharmacokinetics in Black and White Renal Transplant Recipients” (Frontiers in Genetics, 2020):
Read-outs that look alike come from different tables or passages of the source.

What was measured:
[1] = MPA trough at 12 h in study patients by CYP3A5*3*6*7 metabolic group; conditions: both sexes, human, in vivo, oral, ECMPS at steady state
Method: (§1) Tacrolimus doses were adjusted to 4–9 ng/ml troughs based upon time post-transplant and clinical response using a program-specific minimization protocol. ECMPS was dose adjusted based upon clinical response. Estimated glomerular filtration rate (e-GFR) was calculated using the four-factor MDRD equation ([Levey et al., 1999]). Medication adherence was verified by transplant nurse clinician and medication adherence assessment by transplant pharmacist at enrollment. Ethnicity for two previous generations was verified prior to study.

[2] = 12-h steady-state tacrolimus pharmacokinetics by CYP3A5*3*6*7 metabolic composite group in renal transplant recipients; assay type: in vivo, human
Method: as §1
Loss of protein function due to any one of these variants can occur independent of allelic status at the other two loci; thus assessment of any single SNP may be misleading as an indicator of enzyme function. Patients were assigned a metabolic composite designation as described earlier ([Campagne et al., 2018]) based upon the combined allelic status at all three independent loci (Figure 1). The Extensive Metabolizer phenotype was assigned to individuals with functional genes on both chromosomes. Patients were assigned the Poor Metabolizer phenotype if they were homozygous for the variant allele at any one of the three SNPs and thus CYP3A5 genes on both chromosomes are non-functional (Figure 1C). Patients were designated as Intermediate Metabolizer if they were heterozygous for one loss of function SNP at any of the three loci (Figure 1B). Finally, for patients who were heterozygous at two or more of the SNPs responsible for loss of function, the level of enzyme is dependent upon the arrangement of the variant alleles on each chromosome (Figure 1D). […] For this analysis double heterozygotes (Figure 1D) were conservatively assigned as an Intermediate Metabolizer since individuals could either be poor or intermediate metabolizers.

[3] = Tacrolimus pharmacokinetics stratified by CYP3A5 metabolic composite and ABCB1 3435 genotype; assay type: in vivo, human; conditions: for Tmax / AUC / Cmax / concentration at 12 h / clearance: human, whole blood, oral; for concentration at 12 h: read-out: C12hr; for clearance: read-out: CL/LBW (converted)
Method: To assess the role of both CYP3A5 and ABCB1 variants on tacrolimus pharmacokinetics the CYP3A5 metabolic composite groups and the ABCB1 3435C > T (rs1045642) were included in a single analysis. […] Significant effects of both CYP3A5 and ABCB1 variants on tacrolimus pharmacokinetics was assessed using multivariate analysis of variance.
All patient demographics and tacrolimus pharmacokinetic parameters were summarized by metabolic composite score for CYP3A5^∗3^∗6^∗7 using the mean and standard deviation for continuous variables. The potential trend between metabolic composite genotypes and association to tacrolimus pharmacokinetics were evaluated using the two-sided Jonckheere-Terpstra test for trends ([Jonckheere, 1983]). Post hoc pairwise comparisons were made using Holm-Bonferroni adjusted Wilcoxon rank sum tests (version 9.3, SAS Institute, Cary, NC). Significant combined effects reflecting composite metabolic CYP3A5 and ABCB1 variants on tacrolimus pharmacokinetics was assessed using multivariate analysis of variance ([Littell et al., 2006]). Significant effects are shown in bold.

[4] = single chromosome; for AUC0–4, phenotypic mean [95% CI] / AUC*, phenotypic mean [95% CI]: race adjusted Thesias; for CL_F, phenotypic mean [95% CI]: sex-adjusted Thesias
Method: (§2) All patients were at steady-state conditions for both tacrolimus and ECMPS. Patients were enrolled only if they had received the same dose of tacrolimus and ECMPS for ≥7 days prior to study. This was assumed to be sufficient to approach steady-state plasma concentrations. Proton pump inhibiters, H2 antagonists and antacids were discontinued at least 36 h prior to study. Patients took immunosuppressives between 5:30 to 6:30 PM prior to study, fasted and abstained from caffeine and alcohol for 12 h prior to study. At 6:00 AM, patients were admitted, vital signs documented and an intravenous angiocatheter inserted. A 0 h sample (∼15 ml) was collected prior to immunosuppressives for drug troughs and laboratory tests (ECMC Clinical Chemistry Laboratory). Oral study medications [(single lot of tacrolimus (Prograf) and ECMPS (Myfortic)] were administered at 7:00 AM. Patients remained upright throughout the study. Standardized low fat meals were provided after 4 h. Antihypertensives were administered after 1.5 h and non-immunosuppressives after 4 h. Blood samples (7 ml) were collected at 0 h and 1, 2, 3, 4, 6, 8, 10, and 12 h after drug administration. Whole blood samples were aliquoted within 30 minutes and stored at −70°C until analysis.
(§3) Given the known linkage among all three ABCB1 SNPs, haplotype analysis was conducted. […] ABCB1 haplotype estimation was determined using the THESIAS program ([Tregouet et al., 2004]; [Tregouet and Garelle, 2007]). THESIAS uses a maximum likelihood algorithm for the simultaneous estimation of haplotype frequencies and their association to tacrolimus pharmacokinetic parameters.
(§4) Tacrolimus troughs and pharmacokinetic concentrations were analyzed within 24 h at the ECMC Clinical Laboratory using the [sequence] tacrolimus assay (Abbott, Abbott Park, IL), a chemiluminescent microparticle immunoassay. The lower limit of detection was 0.5 ng/ml and intraday assay variability was <7%. The calibration standard curve ranged from 1 to 30 ng/ml and quality controls (QC) were 3.0, 12.0, and 25 ng/mL (Bio-Rad, Hercules, CA, United States). The interday coefficient of variation (CV) for each QC was <4% and intra-day CV was <5%. Selected troughs and peaks (N = 40 samples) were analyzed using a validated LCMSMS assay by a CLIA certified external analytical laboratory and compared to the results generated from the [sequence] tacrolimus assay with excellent agreement (R^2 = 0.98). For the tacrolimus LCMSMS assay, the interday and intraday CV were <5% at the low and high concentration QC.
(§5) Pharmacokinetic parameters included area under the concentration versus time curve 0 to 12 h (AUC0–12 h), dose-normalized AUC0–12 (AUC^∗); 12-h trough (C12 h) and peak concentration (Cmax) with dose normalization and time to peak (T max). Oral clearance of tacrolimus was the ratio of dose to AUC0–12 h. Tacrolimus clearances were adjusted for TBW and LBW. AUC0–12 was determined by the linear trapezoidal rule using non-compartmental methods (Phoenix WINNONLIN Version 6.3. Pharsight Corp, Mountain View, Calif). C12 h, Cmax, AUC0–4 h, and AUC0–12 were dose-normalized to 1 mg dose equivalent.

clinical = conditions: both, human, whole blood, oral
Method: as §2, §3, §4, §5

[5] = ABCB1 3534 CC, CYP3A5 Extensive (N 6)
[6] = ABCB1 3534 CC, CYP3A5 Intermediate (N 10)
[7] = ABCB1 3534 CC, CYP3A5 Poor (N 13)
[8] = ABCB1 3534 CT and TT, CYP3A5 Extensive (N 6)
[9] = ABCB1 3534 CT and TT, CYP3A5 Intermediate (N 10)
[10] = ABCB1 3534 CT and TT, CYP3A5 Poor (N 20)
[11] = 2.35 mg, ABCB1 3534 CT and TT, CYP3A5 Poor (N 20)
[12] = 2.46 mg, ABCB1 3534 CC, CYP3A5 Poor (N 13)
[13] = 3.55 mg, ABCB1 3534 CT and TT, CYP3A5 Intermediate (N 10)
[14] = 4 mg, ABCB1 3534 CC, CYP3A5 Intermediate (N 10)
[15] = 5.08 mg, ABCB1 3534 CT and TT, CYP3A5 Extensive (N 6)
[16] = 5.67 mg, ABCB1 3534 CC, CYP3A5 Extensive (N 6)

SMILES: COc1c(C)c2c(c(O)c1C/C=C(\C)CCC(=O)O)C(=O)OC2 [MPA, mycophenolic acid]
- concentration at 12 h ([1]; CYP3A5*3*6*7 Extensive group (N 7)): 42 ng/mL
- concentration at 12 h ([1]; CYP3A5*3*6*7 Intermediate group (N 23)): 41 ng/mL
- concentration at 12 h ([1]; CYP3A5*3*6*7 Poor group (N 35)): 32 ng/mL
- concentration at 12 h ([1]; Overall (N 65)): 37 ng/mL

SMILES: C=CC[C@@H]1/C=C(\C)C[C@H](C)C[C@H](OC)[C@H]2O[C@@](O)(C(=O)C(=O)N3CCCC[C@H]3C(=O)O[C@H](/C(C)=C/[C@@H]3CC[C@@H](O)[C@H](OC)C3)[C@H](C)[C@@H](O)CC1=O)[C@H](C)C[C@@H]2OC [tacrolimus]
- patients with 12-h tacrolimus exposures <120 ng.hr/ml ([2]; Blacks, 10/33): 30%
- AUC* lower in Extensive than Poor metabolizers ([2]; P < 0.001): 50%
- patients with 12-h tacrolimus exposures <120 ng.hr/ml ([2]; Whites, 17/32): 53%
- patients exhibiting AUC0–12 h below the recommended therapeutic range ([2]; all patients, in spite of achieving target troughs): approximately 40%
- dose normalized trough (Cp12hr/dose), Poor compared to Extensive Metabolizers ([2]; greater in Poor, P = 0.0016): 2.5 fold
- dose-adjusted AUC0–12 h, Poor compared to Extensive metabolizers ([2]; higher in Poor, P < 0.001): 2 fold
- patients within the therapeutic trough range ([2]; target range >4 ng/ml and <15 ng/ml): 64 of 65
- AUC0–12 Dose [3, 5]: 23.95 (8.30) ng.hr/ml/mg
- C12hr/dose [3, 5]: 1.43 (0.55) ng/ml/mg
- CL_F [3, 5]: 48.23 (4.32) L/hr
- Cmax/Dose [3, 5]: 3.36 (1.19) ng/ml
- AUC0–12 Dose [3, 6]: 36.76 (6.43) ng.hr/ml/mg
- AUC* [3, 6]: 130.75 (9.73) ng.hr/ml
- C12hr/dose [3, 6]: 2.16 (0.43) ng/ml/mg
- CL_F [3, 6]: 31.30 (3.35) L/hr
- Cmax/Dose [3, 6]: 5.21 (0.92) ng/ml
- AUC0–12 Dose [3, 7]: 56.39 (5.64) ng.hr/ml/mg
- C12hr/dose [3, 7]: 3.44 (0.37) ng/ml/mg
- CL_F [3, 7]: 22.61 (2.94) L/hr
- Cmax/Dose [3, 7]: 7.20 (0.81) ng/ml
- AUC0–12 Dose [3, 8]: 28.97 (8.30) ng.hr/ml/mg
- AUC* [3, 8]: 129.45 (12.57) ng.hr/ml
- C12hr/dose [3, 8]: 1.57 (0.55) ng/ml/mg
- CL_F [3, 8]: 39.53 (4.32) L/hr
- Cmax/Dose [3, 8]: 4.95 (1.19) ng/ml
- AUC0–12 Dose [3, 9]: 42.94 (6.43) ng.hr/ml/mg
- C12hr/dose [3, 9]: 2.40 (0.43) ng/ml/mg
- CL_F [3, 9]: 24.49 (3.35) L/hr
- Cmax/Dose [3, 9]: 6.61 (0.92) ng/ml
- AUC0–12 Dose [3, 10]: 56.80 (4.55) ng.hr/ml/mg
- C12hr/dose [3, 10]: 3.30 (0.30) ng/ml/mg
- CL_F [3, 10]: 20.09 (2.37) L/hr
- Cmax/Dose [3, 10]: 8.09 (0.65) ng/ml
- effect of ABCB1 3435 T allele on tacrolimus clearance ([3]; across all 3 CYP3A5 metabolic composite groups, P = 0.040): significantly reduced
- Tmax ([3]; both sexes, 2.46 mg, ABCB1 3534 CC, CYP3A5 Poor (N 13)): 1.94 h
- Tmax ([3]; both sexes, 4 mg, ABCB1 3534 CC, CYP3A5 Intermediate (N 10)): 1.87 h
- Tmax ([3]; both sexes, 5.67 mg, ABCB1 3534 CC, CYP3A5 Extensive (N 6)): 1.78 h
- AUC ([3]; 2.35 mg, ABCB1 3435 CT and TT, CYP3A5 Poor (N 20)): 118 ng·h/mL
- Cmax [3, 11]: 17 ng/mL
- Tmax [3, 11]: 1.72 h
- concentration at 12 h [3, 11]: 6.81 ng/mL
- clearance [3, 11]: 6.5 mL/min/kg
- AUC ([3]; 2.46 mg, ABCB1 3435 CC, CYP3A5 Poor (N 13)): 117 ng·h/mL
- Cmax [3, 12]: 15.7 ng/mL
- concentration at 12 h [3, 12]: 6.94 ng/mL
- clearance [3, 12]: 6.17 mL/min/kg
- AUC ([3]; 3.55 mg, ABCB1 3435 CT and TT, CYP3A5 Intermediate (N 10)): 150 ng·h/mL
- Cmax [3, 13]: 23.3 ng/mL
- Tmax [3, 13]: 2.29 h
- concentration at 12 h [3, 13]: 8.37 ng/mL
- clearance [3, 13]: 6.83 mL/min/kg
- Cmax [3, 14]: 18.6 ng/mL
- concentration at 12 h [3, 14]: 7.55 ng/mL
- clearance [3, 14]: 9.17 mL/min/kg
- Cmax [3, 15]: 23.7 ng/mL
- Tmax [3, 15]: 2.03 h
- concentration at 12 h [3, 15]: 6.58 ng/mL
- clearance [3, 15]: 13.2 mL/min/kg
- AUC ([3]; 5.67 mg, ABCB1 3435 CC, CYP3A5 Extensive (N 6)): 122 ng·h/mL
- Cmax [3, 16]: 17 ng/mL
- concentration at 12 h [3, 16]: 7.4 ng/mL
- clearance [3, 16]: 15 mL/min/kg
- C max/Dose, phenotypic mean [95% CI] ([4]; ABCB1 variant haplotype TTT): 4.06[3.19 – 4.93] ng/ml/mg
- AUC0–4, phenotypic mean [95% CI] ([4]; ABCB1 variant haplotype TTT): 43.9 [33.4 – 54.4] ng.hr/ml/mg
- AUC*, phenotypic mean [95% CI] ([4]; ABCB1 variant haplotype TTT): 92.2 [74.6 – 109.8] ng.hr/ml/mg
- CL_F, phenotypic mean [95% CI] ([4]; ABCB1 variant haplotype TTT): 13.99 [7.87 – 20.11]* L/hr
- C max/Dose, phenotypic mean [95% CI] ([4]; ABCB1 wild type haplotype CGC): 3.01[2.42 – 3.59] ng/ml/mg
- AUC0–4, phenotypic mean [95% CI] ([4]; ABCB1 wild type haplotype CGC): 36.59 [30.2 – 42.9] ng.hr/ml/mg
- AUC*, phenotypic mean [95% CI] ([4]; ABCB1 wild type haplotype CGC): 80.0[68.8 – 91.1] ng.hr/ml/mg
- CL_F, phenotypic mean [95% CI] ([4]; ABCB1 wild type haplotype CGC): 20.4 [14.5 – 26.3]* L/hr
- clearance (clinical; 1.58 mg): 6 mL/min/kg
- clearance (clinical; 2.45 mg): 8 mL/min/kg
